Measurements reported in article PMC10284601, “Evolution of an extreme hemoglobin phenotype contributed to the sub-Arctic specialization of extinct Steller’s sea cows” (eLife, 2023).

Columns and labels:
Experiment in all cases: shift of O2 affinity (P50), thin-film O2 equilibrium curves
Conditions in all cases: allosteric effector of O2 binding; 0.5 mM DPG (twofold molar excess over tetramer) vs stripped Hb; no Cl-; 0.1 M HEPES, pH 7.2, 37 °C
[1] = biological target: T1, Steller's sea cow Hb (H. gigas HbA; α2β/δ2) (Hydrodamalis gigas, UniProt A0A481WR13, N83K)
T1 construct: gene HBB; recombinant tetramer, E. coli JM109 (DE3) with co-expressed methionine aminopeptidase, codon-optimised, ion exchange purified; natural β/δ82Asn; with Hemoglobin subunit alpha
T1 sequence (A0A481WNT7 entry or part of it, stated change not applied): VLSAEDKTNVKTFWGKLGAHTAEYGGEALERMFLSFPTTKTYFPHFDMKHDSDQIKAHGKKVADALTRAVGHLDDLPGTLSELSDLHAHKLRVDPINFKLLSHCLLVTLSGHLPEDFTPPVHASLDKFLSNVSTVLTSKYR
T1 sequence (A0A481WR13 entry or part of it N83K): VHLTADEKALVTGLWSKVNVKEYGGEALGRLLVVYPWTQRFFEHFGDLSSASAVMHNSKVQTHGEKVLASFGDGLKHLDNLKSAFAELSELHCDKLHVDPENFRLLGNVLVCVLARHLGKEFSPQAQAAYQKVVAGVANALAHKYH

dugong Hb (HbA; α2β/δ2) = biological target: T2, dugong Hb (HbA; α2β/δ2) (Dugong dugon, UniProt A0A481WQB0)
T2 construct: gene HBB; recombinant tetramer, E. coli JM109 (DE3) with co-expressed methionine aminopeptidase, codon-optimised, ion exchange purified; with Hemoglobin subunit alpha
T2 sequence (A0A481WNF4 entry or part of it): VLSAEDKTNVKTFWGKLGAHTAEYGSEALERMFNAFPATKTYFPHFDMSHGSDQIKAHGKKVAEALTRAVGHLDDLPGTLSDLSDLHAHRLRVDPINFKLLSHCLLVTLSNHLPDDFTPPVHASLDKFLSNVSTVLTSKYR
T2 sequence (A0A481WQB0 entry or part of it): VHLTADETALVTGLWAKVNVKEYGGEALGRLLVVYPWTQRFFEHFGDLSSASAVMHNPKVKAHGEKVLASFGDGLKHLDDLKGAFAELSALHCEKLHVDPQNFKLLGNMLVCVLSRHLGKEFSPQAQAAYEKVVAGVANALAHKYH

[2] = biological target: T3, Steller's sea cow Hb (H. gigas HbA; α2β/δ2) (Hydrodamalis gigas, UniProt A0A481WR13)
T3 construct: gene HBB; recombinant tetramer, E. coli JM109 (DE3) with co-expressed methionine aminopeptidase, codon-optimised, ion exchange purified; natural β/δ82Asn; with Hemoglobin subunit alpha
T3 sequence (A0A481WR13 entry or part of it): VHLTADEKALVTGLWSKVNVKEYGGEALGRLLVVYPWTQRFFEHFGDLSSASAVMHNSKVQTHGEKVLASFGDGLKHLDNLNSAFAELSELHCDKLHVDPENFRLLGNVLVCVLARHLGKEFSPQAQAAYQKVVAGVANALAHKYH
T3 sequence (A0A481WNT7 entry or part of it, further chain): as the sequence (A0A481WNT7 entry or part of it, stated change not applied) above

O=C(O)[C@@H](COP(=O)(O)O)OP(=O)(O)O [2,3-diphosphoglycerate]
ΔlogP50(DPG-stripped) [1]: reversion to the ancestral state restores the DPG effect to the same level
ΔlogP50(DPG-stripped) (dugong Hb (HbA; α2β/δ2)): 0.30 log units (P50 in mm Hg)
ΔlogP50(DPG-stripped) [2]: 0.02 log units (P50 in mm Hg)
